Test results taken from patent US20220144812A1, “QUINOLINE DERIVATIVES AND THEIR USE FOR THE TREATMENT OF CANCER” (Epizyme, Inc., priority 2019, published 2022).
Where two headings read alike, the source gives them in different places.

Tests used:
[1] = test system: 647V cells; assay: High throughput proliferation (HTP) assay; type: cell-based; conditions: high throughput proliferation, read-out: CREBBP HTP IC50
How it was run: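 Exponentially growing 647V cells in DMEM with 15% FBS were treated in triplicate with increasing compound concentrations at 37° C, 5% CO2. Viable cell number was read by CellTiter-Glo luminescence on day 7; IC50 in micromolar.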

[2] = test system: H3K18Ac in HB-CLS-2 cells; assay: H3K18AC in-cell western (ICW) assay; type: cell-based; conditions: H3K18Ac in-cell western; read-out: CREBBP ICW IC50
How it was run: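 HB-CLS-2 cells seeded 16–24 hours before 2 hr compound treatment at 37° C, 5% CO2, then methanol-fixed. H3K18Ac detected with rabbit monoclonal primary (overnight, 4° C) and 800CW anti-rabbit secondary; DRAQ5 stained DNA. Plates imaged at 700 and 800 nm for integrated intensity; IC50 in μM.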

[3] = biological target: T1, CREBBP (1084-1701) (Homo sapiens, UniProt Q92793); assay: Biochemical assay for CREBBP (1084-1701), SAMDI; conditions: SAMDI, read-out: CREBBP Biochemistry IC50
T1 construct: measured in the following biochemical assay using CREBBP (1084-1701); purchased
How it was run: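 CREBBP (1084-1701) preincubated with compound 30 min at RT, then substrate mix (biotin-H3 11-25 K14R/K23R peptide, acetyl-CoA) added for 30 min at RT. Reaction stopped with formic acid, neutralised with sodium bicarbonate. Peptide acetylation read by SAMDI mass spectrometry to derive IC50.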

[4] = biological target: T2, EP300 (P300(1048-1664)) (Homo sapiens, UniProt Q09472); assay: Biochemical assay for EP300, SAMDI; conditions: EP300, SAMDI; read-out: EP300 Biochemistry IC50
T2 construct: P300(1048-1664)
T2 sequence (Q09472 1048-1664): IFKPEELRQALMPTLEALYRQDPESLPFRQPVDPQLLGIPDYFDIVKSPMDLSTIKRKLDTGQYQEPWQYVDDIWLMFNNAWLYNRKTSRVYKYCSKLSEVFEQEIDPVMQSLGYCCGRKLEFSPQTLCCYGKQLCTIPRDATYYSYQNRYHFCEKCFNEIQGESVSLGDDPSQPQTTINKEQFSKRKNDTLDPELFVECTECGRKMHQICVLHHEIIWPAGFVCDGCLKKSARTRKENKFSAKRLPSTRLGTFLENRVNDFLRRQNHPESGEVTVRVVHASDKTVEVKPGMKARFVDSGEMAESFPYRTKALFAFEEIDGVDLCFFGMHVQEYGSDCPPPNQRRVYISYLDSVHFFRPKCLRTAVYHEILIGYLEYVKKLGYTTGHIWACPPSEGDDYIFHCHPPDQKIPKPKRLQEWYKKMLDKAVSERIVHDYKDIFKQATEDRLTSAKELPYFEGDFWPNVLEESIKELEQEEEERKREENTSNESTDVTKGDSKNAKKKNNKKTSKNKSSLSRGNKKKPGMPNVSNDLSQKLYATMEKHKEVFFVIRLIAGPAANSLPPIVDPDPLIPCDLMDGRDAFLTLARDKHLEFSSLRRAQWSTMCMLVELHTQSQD
Excerpt: The following example describes materials and methods relating to a biochemical assay for EP300. IC50 values (micromolar (μM)) are summarized in Table 1, Table 2, and Table 3 under the column labeled: “EP300 Biochemistry IC50 (micromolar).”

T1 sequence (Q92793 1084-1701): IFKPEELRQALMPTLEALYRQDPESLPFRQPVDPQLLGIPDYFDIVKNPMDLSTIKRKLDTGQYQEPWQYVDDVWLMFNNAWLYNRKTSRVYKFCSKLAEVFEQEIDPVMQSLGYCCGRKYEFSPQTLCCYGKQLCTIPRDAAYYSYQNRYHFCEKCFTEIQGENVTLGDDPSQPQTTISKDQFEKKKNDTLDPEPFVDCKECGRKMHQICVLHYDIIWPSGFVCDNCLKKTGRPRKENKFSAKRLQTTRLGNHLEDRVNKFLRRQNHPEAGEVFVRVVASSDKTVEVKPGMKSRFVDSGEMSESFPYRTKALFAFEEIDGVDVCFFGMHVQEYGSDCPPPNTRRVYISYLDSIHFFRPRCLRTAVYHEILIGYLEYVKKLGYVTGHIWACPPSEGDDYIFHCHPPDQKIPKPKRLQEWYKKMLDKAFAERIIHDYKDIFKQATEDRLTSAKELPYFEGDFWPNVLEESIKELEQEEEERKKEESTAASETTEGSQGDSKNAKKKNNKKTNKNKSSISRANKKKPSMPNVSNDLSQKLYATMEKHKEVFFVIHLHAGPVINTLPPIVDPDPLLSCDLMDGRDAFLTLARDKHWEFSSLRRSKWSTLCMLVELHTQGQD

Structure (SMILES) | IC50 [1] [nM] | IC50 [2] [nM] | IC50 [3] [nM] | IC50 [4] [nM] | IC50 ([1]; Homo sapiens, 647-V) [nM]
CCn1ncc(CN(C)C(=O)c2cc(-c3csc(C)n3)nc3ccc(Cl)cc23)c1C [Compound 90] | 1500 | 1600 | 340 | 210 | –
CCn1ncc(CN(C)C(=O)c2nc(-c3ccc(OCCCN(C)C(=O)OC(C)(C)C)c(C)c3Cl)nc3ccc(Cl)cc23)c1C [Compound 93] | – | 1700 | 140 | 68 | 1200
CCn1ncc(CN(C)C(=O)c2cc(-c3ccnc(N)c3)nc3ccc(Cl)cc23)c1C [Compound 94] | – | 1700 | 2100 | 1500 | 1500
CCn1ncc(CN(C)C(=O)c2nc(-c3ccc(OCCOC)cc3Cl)nc3ccc(Cl)cc23)c1C [Compound 96] | – | 1900 | 740 | 1500 | 1800
CCn1ncc(CN(C)C(=O)c2nc(-c3cc(C)cc(NCCN(C)C(=O)OC(C)(C)C)c3)nc3ccc(Cl)cc23)c1C [Compound 99] | – | 2000 | 2200 | 2600 | 2100
CCn1ncc(CN(C)C(=O)c2nc(-c3cn[nH]c3C)nc3ccc(Cl)cc23)c1C [Compound 100] | – | 2100 | 11000 | 6300 | 1600
CCn1ncc(CN(C)C(=O)c2nc(-c3ccc(OCCO)c(OC)c3)nc3ccc(Cl)cc23)c1C [Compound 102] | – | 2100 | 4000 | 4300 | 2300
CCn1ncc(CN(C)C(=O)c2nc(-c3ccc4nc(C)n(C(=O)OC(C)(C)C)c4c3)nc3ccc(Cl)cc23)c1C [Compound 104] | – | 2200 | 9200 | 13000 | 230
CCn1ncc(CN(C)C(=O)c2nc(-c3cc(C#N)cc(NCCN(C)C(=O)OC(C)(C)C)c3)nc3ccc(Cl)cc23)c1C [Compound 105] | – | 2400 | 3300 | 2300 | 1800
CC1CCCc2c(CN(C)C(=O)c3cc(-c4cccc(Cl)c4)nc4ccc(Cl)cc34)cnn21 (stereo not drawn) [Compound 107] | – | 2500 | 1100 | 590 | 6200
CCn1ncc(CN(C)C(=O)c2nc(-c3ccc(OCCOC)c(Cl)c3)nc3ccc(Cl)cc23)c1C [Compound 108] | – | 2500 | 970 | 930 | 2200
CCn1ncc(CN(C)C(=O)c2nc(-c3cnc[nH]3)nc3ccc(Cl)cc23)c1C [Compound 109] | – | 2500 | 3900 | 1400 | 3500
CCn1ncc(CN(C)C(=O)c2nc(-c3ccc(OCCCNC)cc3)nc3ccc(Cl)cc23)c1C [Compound 110] | – | 2600 | 3200 | 4400 | 1400
CCn1ncc(CN(C)C(=O)c2nc(-c3ccc(OCCO)c(F)c3)nc3ccc(Cl)cc23)c1C [Compound 111] | – | 2600 | 6400 | 4700 | 2400
CCn1ncc(CN(C)C(=O)c2nc(-c3ccc(NCCNC)cn3)nc3ccc(Cl)cc23)c1C [Compound 112] | – | 2700 | 1300 | 730 | 2100
CCn1ncc(CN(C)C(=O)c2cc(-c3ccc(NCCN(C)C(=O)OC(C)(C)C)cn3)nc3ccc(Cl)cc23)c1C [Compound 113] | – | 2800 | 4800 | 1500 | 6700
CCn1ncc(CN(C)C(=O)c2nc(-c3ccc(OCCN(C)S(C)(=O)=O)c(OC)c3)nc3ccc(Cl)cc23)c1C [Compound 114] | – | 2800 | 5200 | 4300 | 2800
CCn1ncc(CN(C)C(=O)c2nc(-c3cc(Cl)cc(NCCCN(C)C(=O)OC(C)(C)C)c3)nc3ccc(Cl)cc23)c1C [Compound 115] | – | 2800 | 160 | 110 | 4400

Structure (SMILES) | IC50 [1] [nM] | IC50 [2] [nM] | IC50 [3] [nM] | IC50 [4] [nM] | IC50 ([1]; Homo sapiens, 647-V) [nM]
CCn1ncc(CN(C)C(=O)c2nc(-c3cc(CNC)ccc3C)nc3ccc(Cl)cc23)c1C [Compound 116] | – | 2900 | 3400 | 6900 | 1900
CCn1ncc(CN(C)C(=O)c2nc(-c3ccc(OCCNC(=O)OC(C)(C)C)c(Cl)c3)nc3ccc(Cl)cc23)c1C [Compound 117] | – | 3000 | 270 | 4300 | 2400
CCn1ncc(CN(C)C(=O)c2cc(-c3cn(C)cn3)nc3ccc(Cl)cc23)c1C [Compound 119] | – | 3300 | 4500 | 1300 | 690
CCn1ncc(CN(C)C(=O)c2nc(-c3cc(Cl)cc(NCCN(C)C(=O)OC(C)(C)C)c3)nc3ccc(Cl)cc23)c1C [Compound 121] | – | 3500 | 410 | 860 | 3800
CCn1ncc(CN(C)C(=O)c2cc(-c3ccc(OCC(=O)NC)c(OC)c3)nc3ccc(Cl)cc23)c1C [Compound 122] | – | 3600 | 4500 | 4300 | 2100
CCn1ncc(CN(C)C(=O)c2nc(-c3cc(Cl)cc(CN4CCNCC4)c3)nc3ccc(Cl)cc23)c1C [Compound 124] | – | 3900 | 370 | 1400 | 4100
CCn1ncc(CN(C)C(=O)c2nc(-c3cn[nH]c3)nc3ccc(Cl)cc23)c1C [Compound 125] | – | 4000 | 6300 | 3500 | 4100
CCn1ncc(CN(C)C(=O)c2nc(-c3ccc(OCCCNC(=O)OC(C)(C)C)c(OC)c3)nc3ccc(Cl)cc23)c1C [Compound 127] | – | 4400 | 12000 | 15000 | 3500
CCn1ncc(CN(C)C(=O)c2nc(-c3cc(Cl)cc(OCCCNC)c3)nc3ccc(Cl)cc23)c1C [Compound 128] | – | 4500 | 350 | 800 | 1900
CCn1ncc(CN(C)C(=O)c2cc(-n3cc(C)cn3)nc3ccc(Cl)cc23)c1C [Compound 129] | – | 4600 | 7400 | 1400 | 8300
CCn1ncc(CN(C)C(=O)c2nc(-c3cccc(N)n3)nc3ccc(Cl)cc23)c1C [Compound 131] | – | 4700 | 5500 | 2600 | 7500
CCn1ncc(CN(C)C(=O)c2nc(-c3ccc4[nH]nnc4c3)nc3ccc(Cl)cc23)c1C [Compound 133] | – | 4900 | 100 | 470 | 5900
CCn1ncc(CN(C)C(=O)c2nc(-c3ccnc(NC(C)=O)c3)nc3ccc(Cl)cc23)c1C [Compound 135] | – | 5100 | 7500 | 7100 | 6700
CCn1ncc(CN(C)C(=O)c2nc(-c3ccc(OCCC(=O)NC)c(OC)c3)nc3ccc(Cl)cc23)c1C [Compound 137] | – | 5300 | 8300 | 7800 | 4700
CCn1ncc(CN(C)C(=O)c2cc(-c3csc(CNC)n3)nc3ccc(Cl)cc23)c1C [Compound 138] | 8300 | 5900 | 12000 | 5200 | –
CCn1ncc(CN(C)C(=O)c2nc(-c3ccc(CN4CCNCC4)c(OC)c3)nc3ccc(Cl)cc23)c1C [Compound 139] | 7500 | 5900 | 6800 | 7400 | –
CCn1ncc(CN(C)C(=O)c2nc(-c3ccc(OCCNC(=O)OC(C)(C)C)c(C)c3)nc3ccc(Cl)cc23)c1C [Compound 143] | 4300 | 6400 | 130 | 8100 | –
CCn1ncc(CN(C)C(=O)c2nc(-c3cn(CCNC)nc3C)nc3ccc(Cl)cc23)c1C [Compound 144] | – | 8400 | 5400 | 8900 | 3300
